Data as given in PubChem BioAssay (NCI).
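Following 48 hours of exposure in 96-well plates, responses at five concentrations were used to interpolate endpoints linearly. The concentration for 50% growth inhibition is given as GI50. Definition used: TGI = concentration required for complete inhibition of growth.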

Assays:
Assay in all cases: DTP human tumour cell line panel, 48 h
COLO 205 colon = tested on: COLO 205 colon
HL-60(TB) leukemia = tested on: HL-60(TB) leukemia
HT29 colon = tested on: HT29 colon
IGROV1 ovarian = tested on: IGROV1 ovarian
KM12 colon = tested on: KM12 colon
NCI-H460 lung = tested on: NCI-H460 lung
OVCAR-3 ovarian = tested on: OVCAR-3 ovarian
OVCAR-4 ovarian = tested on: OVCAR-4 ovarian
OVCAR-5 ovarian = tested on: OVCAR-5 ovarian
OVCAR-8 ovarian = tested on: OVCAR-8 ovarian
RPMI-8226 leukemia = tested on: RPMI-8226 leukemia
SK-MEL-2 melanoma = tested on: SK-MEL-2 melanoma
SK-MEL-28 melanoma = tested on: SK-MEL-28 melanoma
SK-MEL-5 melanoma = tested on: SK-MEL-5 melanoma
SNB-19 CNS = tested on: SNB-19 CNS
U251 CNS = tested on: U251 CNS
UACC-62 melanoma = tested on: UACC-62 melanoma

Compound | TGI (COLO 205 colon) [µM] | TGI (HL-60(TB) leukemia) [µM] | TGI (HT29 colon) [µM] | TGI (IGROV1 ovarian) [µM] | TGI (KM12 colon) [µM] | TGI (NCI-H460 lung) [µM] | TGI (OVCAR-3 ovarian) [µM] | GI50 (OVCAR-4 ovarian) [µM] | TGI (OVCAR-4 ovarian) [µM] | GI50 (OVCAR-5 ovarian) [µM] | TGI (OVCAR-5 ovarian) [µM] | TGI (OVCAR-8 ovarian) [µM] | TGI (RPMI-8226 leukemia) [µM] | TGI (SK-MEL-2 melanoma) [µM] | TGI (SK-MEL-28 melanoma) [µM] | TGI (SK-MEL-5 melanoma) [µM] | TGI (SNB-19 CNS) [µM] | TGI (U251 CNS) [µM] | TGI (UACC-62 melanoma) [µM] | GI50 (HL-60(TB) leukemia) [µM]
Cc1ccc2cc3c(ccc4ccccc43)c3c2c1CC3 | > 100 | > 100 | > 100 | > 100 | > 100 | > 100 | > 100 | > 100 | > 100 | > 100 | > 100 | > 100 | > 100 | > 100 | > 100 | > 100 | > 100 | > 100 | > 100 | 
CCCCNc1c(CN)cnc2cc(Cl)ccc12 | 21.5 | 3.92 | 37 | 34.4 | 36.7 | 25.8 | 32.3 |  | 40.1 |  | 35.5 | 33.8 | 37 | 33.3 | 30 | 29.3 | 51 | 30.4 | 29 | 
Nc1ccc(C2NC(=O)Cc3c2ccc2ccccc32)cc1 (configuration not stated) | > 100 | > 100 | > 100 | > 100 | > 100 | > 100 | > 100 |  | > 100 |  | > 100 | > 100 | > 100 | > 100 | > 100 | > 100 | > 100 | > 100 | > 100 | 
NC(=O)NO | > 2500 | 182 | > 2440 | > 2020 | 2500 | 2040 | 2500 |  | > 2500 |  | 1990 | > 2460 | 2260 | > 2450 | > 2500 | 2230 | > 2340 | 2330 | 1560 | 21
C=CCOC1OC(CS(=O)(=O)O)C(O)C(O)C1O (configuration not stated) | > 100 | > 100 | > 100 | > 100 | > 100 | > 100 | > 100 |  | > 100 |  | > 100 | > 100 | > 100 | > 100 | > 100 | > 100 | > 100 | > 100 | > 100 | 
O=C(O)C(O)Cc1ccccn1 (configuration not stated) | > 100 | > 100 | > 100 | > 100 | > 100 | > 100 | > 100 |  | > 100 |  | > 100 | > 100 | > 100 | > 100 | > 100 | > 100 | > 100 | > 100 | > 100 | 
COc1ccc2oc(=O)cc(C)c2c1 | > 100 | > 100 | > 100 | > 100 | > 100 | > 100 | > 100 |  | > 100 |  | > 100 | > 100 | > 100 | > 100 | > 100 | > 100 | > 100 | > 100 | > 100 | 
COc1ccccc1N1C(Cl)C(=O)C1c1c[nH]c2ccccc12 (configuration not stated) | > 100 | > 100 | > 100 | > 100 | > 100 | > 100 | > 100 |  | > 100 |  | > 100 | > 100 | > 100 | > 100 | > 100 | > 100 | > 100 | > 100 | > 100 | 
COc1ccc(C2C(=O)C(Cl)N2Nc2nc(C)cc(=O)[nH]2)cc1OC (configuration not stated) | > 100 | 37.6 | > 100 | 70.2 | > 100 | > 100 | 84.8 |  | > 100 |  | > 100 | > 100 | 55.9 | > 100 | > 100 | > 100 | > 100 | > 100 | > 100 | 
CS/C(=N\C(=S)Nc1ccccc1)Nc1ccccc1 | 78.1 | 39.2 | 33.1 | 97.6 | > 100 | 48.7 | 48 |  | > 100 |  | 77.3 | 77.4 | 62.1 | 56.4 | > 100 | 21.5 | 94.6 | > 100 | 53.6 | 
c1ccc(C(c2ccccc2)[P+](c2ccccc2)(c2ccccc2)c2ccccc2)cc1 | 1.2 | 4.05 | 6.73 | 8.64 | 2.7 | 11.5 | 3 |  | 10 |  | 13.3 | 13.5 | 1.28 | 1.25 | 5.18 | 1.15 | 10 | 12.1 | 3.56 | 
FC(F)(F)C(C1=NC(C(F)(F)F)(C(F)(F)F)N=C(N2CCOCC2)O1)C(F)(F)F | 38.9 | 22 | 57.8 | 57.1 | > 100 | > 100 | > 100 |  | 66.1 |  | 46.4 | 47.3 | 57.7 | 57.8 | 52.4 | 28.4 | > 100 | > 100 | 33.5 | 
